Experimental data as given in patent publication US8791102B2, “Acetanilide sphingosine-1-phosphate receptor antagonists” (Exelixis, Inc., priority 2008, dated 2014).
pIC50: −log10 of the molar value.

biological target: T1, human S1P1 receptors (Homo sapiens, UniProt P21453); assay: S1P1R antagonist assay (fluorescent membrane potential dye, cAMP readout); assay type: cell-based; details: HEK293 cells expressing human S1P1 receptors and CNG channel; 500 nM NECA; S1P1R agonist 10 nM; 90 minutes; read-out: EC50 or IC50 value
T1 construct: host or cells: HEK293
T1 sequence (P21453 whole entry): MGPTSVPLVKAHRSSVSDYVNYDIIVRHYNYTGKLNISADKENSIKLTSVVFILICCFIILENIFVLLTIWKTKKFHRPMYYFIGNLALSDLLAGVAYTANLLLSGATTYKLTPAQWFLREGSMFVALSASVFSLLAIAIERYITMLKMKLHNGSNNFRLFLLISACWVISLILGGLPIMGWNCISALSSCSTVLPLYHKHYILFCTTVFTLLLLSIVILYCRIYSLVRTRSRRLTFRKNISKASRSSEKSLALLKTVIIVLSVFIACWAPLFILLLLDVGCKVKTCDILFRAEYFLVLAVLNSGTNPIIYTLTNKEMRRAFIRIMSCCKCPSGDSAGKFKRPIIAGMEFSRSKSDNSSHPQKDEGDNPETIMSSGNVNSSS

Question: `COc1ccc([C@@H]2C[C@@H](C(=O)Nc3ccc(Oc4ccc(F)cc4)cc3)N(C(=O)Cn3cncn3)C2)cc1` [Compound 62, (2S,4S)-1-(2-(1H-1,2,4-triazol-1-yl)acetyl)-N-(4-(4-fluorophenoxy)phenyl)-4-(4-methoxyphenyl)pyrrolidine-2-carboxamide] was tested. Which pIC50 did it give?
Answer: The pIC50 was at least 6.52.

Question: `O=C(Cc1cccc(OC(F)(F)F)c1)N[C@@H](COCc1ccccc1)C(=O)Nc1ccc(Oc2ccc(F)cc2)cc1` [Compound 102, (S)-3-(benzyloxy)-N-(4-(4-fluorophenoxy)phenyl)-2-(2-(3-(trifluoromethoxy)phenyl)acetamido)propanamide] was tested. Which pIC50 did it give?
Answer: The pIC50 was under 6.00.

Question: `CS(=O)(=O)c1ccc(C(=O)NC(COCc2ccccc2)C(=O)Nc2ccc(Oc3ccccc3)cc2)cc1` (stereo not shown) [Compound 333, 4-(methylsulfonyl)-N-(2-oxo-1-{[(phenylmethyl)oxy]methyl}-2-{[4-(phenyloxy)phenyl]amino}ethyl)benzamide] was tested. Which pIC50 did it give?
Answer: The pIC50 was under 6.00.

Question: `O=C(CN1CCCC1)N[C@@H](COCc1ccccc1)C(=O)Nc1ccc(Oc2ccc(F)cc2)cc1` [Compound 215, (S)-3-(benzyloxy)-N-(4-(4-fluorophenoxy)phenyl)-2-(2-(pyrrolidin-1-yl)acetamido)propanamide] was tested. Which pIC50 did it give?
Answer: The pIC50 was 6.00 to 6.52.

Question: How did the pIC50 turn out when `O=C(CNCCc1c[nH]cn1)N[C@@H](COCc1ccccc1)C(=O)Nc1ccc(Oc2ccc(F)cc2)cc1` [Compound 216, (S)-2-(2-(2-(1H-imidazol-4-yl)ethylamino)acetamido)-3-(benzyloxy)-N-(4-(4-fluorophenoxy)phenyl)propanamide] was run?
Answer: The pIC50 was 6.00 to 6.52.

Question: With `COc1ccc(F)cc1C(=O)NC(COCc1ccccc1)C(=O)Nc1ccc(Oc2ccccc2)cc1` (stereo not shown) [Compound 308, 5-fluoro-2-(methyloxy)-N-(2-oxo-1-{[(phenylmethyl)oxy]methyl}-2-{[4-(phenyloxy)phenyl]amino}ethyl)benzamide] as the compound, how does the pIC50 read?
Answer: Its pIC50 is under 6.00.

Question: How did the pIC50 turn out when `O=C(CN1CCNCC1)N[C@@H](COCc1ccccc1)C(=O)Nc1ccc(Oc2ccc(F)cc2)cc1` [Compound 205, (S)-3-(benzyloxy)-N-(4-(4-fluorophenoxy)phenyl)-2-(2-(piperazin-1-yl)acetamido)propanamide] was run?
Answer: Its pIC50 is at least 6.52.

Question: With `O=C(NC(COCc1ccccc1)C(=O)Nc1ccc(Oc2ccccc2)cc1)c1ccc2cc[nH]c2c1` (stereo not shown) [Compound 187, N-(3-(benzyloxy)-1-oxo-1-(4-phenoxyphenylamino)propan-2-yl)-1H-indole-6-carboxamide] as the compound, how does the pIC50 read?
Answer: Its pIC50 is 6.00 to 6.52.

Question: `O=C(Cc1ccccc1F)N[C@@H](COCc1ccccc1)C(=O)Nc1ccc(Oc2ccccc2)cc1` [Compound 196, (S)-2-(2-(2-fluorophenyl)acetamido)-3-benzyloxy-N-(4-phenoxyphenyl)propanamide] was tested. Which pIC50 did it give?
Answer: The pIC50 was 6.00 to 6.52.

Question: `COc1ccc(CCC(=O)NC(COCc2ccccc2)C(=O)Nc2ccc(Oc3ccccc3)cc2)cc1` (stereo not shown) [Compound 304, N-(2-oxo-1-{[(phenylmethyl)oxy]methyl}-2-{[4-(phenyloxy)phenyl]amino}ethyl)-3-(4-methoxyphenyl)propanamide] was tested. Which pIC50 did it give?
Answer: Its pIC50 is under 6.00.

Question: With `O=C(Nc1ccc(Oc2ccc(F)cc2)cc1)[C@@H]1C[C@@H](Cc2ccccc2)CN1C(=O)CN1C(=O)c2ccccc2C1=O` [Compound 97] as the compound, how does the pIC50 read?
Answer: The pIC50 was at least 6.52.

Question: With `O=C(CN1CCSC1)N[C@@H](COCc1ccccc1)C(=O)Nc1ccc(Oc2ccc(F)cc2)cc1` [Compound 235, (S)-3-(benzyloxy)-N-(4-(4-fluorophenoxy)phenyl)-2-(2-(thiazolidin-3-yl)acetamido)propanamide] as the compound, how does the pIC50 read?
Answer: Its pIC50 is 6.00 to 6.52.

Question: With `CC1CCCN(CC(=O)N[C@@H](COCc2ccccc2)C(=O)Nc2ccc(Oc3ccc(F)cc3)cc2)C1` (stereo partly drawn) [Compound 46, (2S)-3-(benzyloxy)-N-(4-(4-fluorophenoxy)phenyl)-2-(2-(3-methylpiperidin-1-yl)acetamido)propanamide] as the compound, how does the pIC50 read?
Answer: The pIC50 was under 6.00.

Question: How did the pIC50 turn out when `CC(=O)NCCC[C@H](NC(=O)Cn1cncn1)C(=O)Nc1ccc(Oc2ccc(F)cc2)cc1` [Compound 254, (S)-2-(2-(1H-1,2,4-triazol-1-yl)acetamido)-5-acetamido-N-(4-(4-fluorophenoxy)phenyl)pentanamide] was run?
Answer: The pIC50 was at least 6.52.

Question: `O=C(CCCCc1ccccc1)N[C@@H](COCc1ccccc1)C(=O)Nc1ccc(Oc2ccc(F)cc2)cc1` [Compound 104, (S)—N-(3-(benzyloxy)-1-(4-(4-fluorophenoxy)phenylamino)-1-oxopropan-2-yl)-5-phenylpentanamide] was tested. Which pIC50 did it give?
Answer: Its pIC50 is under 6.00.

Question: `O=C(Nc1ccc(Oc2ccc(F)cc2)cc1)[C@@H]1C[C@@H](Cc2ccccc2C(F)(F)F)CN1C(=O)Cn1cncn1` [Compound 54, (2S,4R)-1-(2-(1H-1,2,4-triazol-1-yl)acetyl)-N-(4-(4-fluorophenoxy)phenyl)-4-(2-(trifluoromethyl)benzyl)pyrrolidine-2-carboxamide] was tested. Which pIC50 did it give?
Answer: The pIC50 was at least 6.52.

Question: How did the pIC50 turn out when `O=C(CN1CC=CC1)N[C@@H](COCc1ccccc1)C(=O)Nc1ccc(Oc2ccc(F)cc2)cc1` [Compound 214, (S)-3-(benzyloxy)-2-(2-(2,5-dihydro-1H-pyrrol-1-yl)acetamido)-N-(4-(4-fluorophenoxy)phenyl)propanamide] was run?
Answer: The pIC50 was at least 6.52.

Question: With `O=C(Nc1ccc(Oc2ccc(F)cc2)cc1)[C@@H]1C[C@@H](CNCc2ccccc2)CN1C(=O)Cn1cncn1` [Compound 262, (2S,4S)-1-(2-(1H-1,2,4-triazol-1-yl)acetyl)-4-((benzylamino)methyl)-N-(4-(4-fluorophenoxy)phenyl)pyrrolidine-2-carboxamide] as the compound, how does the pIC50 read?
Answer: Its pIC50 is 6.00 to 6.52.

Question: How did the pIC50 turn out when `COc1ccc(Br)c(C(=O)NC(COCc2ccccc2)C(=O)Nc2ccc(Oc3ccccc3)cc2)c1` (stereo not shown) [Compound 272, 2-bromo-5-(methyloxy)-N-(2-oxo-1-{[(phenylmethyl)oxy]methyl}-2-{[4-(phenyloxy)phenyl]amino}ethyl)benzamide] was run?
Answer: Its pIC50 is under 6.00.

Question: `O=C(NC(COCc1ccccc1)C(=O)Nc1ccc(Oc2ccccc2)cc1)c1ccc([N+](=O)[O-])o1` (stereo not shown) [Compound 326, 5-nitro-N-(2-oxo-1-{[(phenylmethyl)oxy]methyl}-2-{[4-(phenyloxy)phenyl]amino}ethyl)furan-2-carboxamide] was tested. Which pIC50 did it give?
Answer: The pIC50 was at least 6.52.

Question: `COCCC(=O)NC(COCc1ccccc1)C(=O)Nc1ccc(Oc2ccccc2)cc1` (stereo not shown) [Compound 337, N-(2-oxo-1-{[(phenylmethyl)oxy]methyl}-2-{[4-(phenyloxy)phenyl]amino}ethyl)-3-methoxypropanamide] was tested. Which pIC50 did it give?
Answer: The pIC50 was under 6.00.

Question: How did the pIC50 turn out when `O=C(Cc1c[nH]cn1)N[C@@H](COCc1ccccc1)C(=O)Nc1ccc(Oc2nccs2)cc1` [Compound 206, (S)-2-(2-(1H-imidazol-4-yl)acetamido)-3-(benzyloxy)-N-(4-(thiazol-2-yloxy)phenyl)propanamide] was run?
Answer: The pIC50 was 6.00 to 6.52.

Question: How did the pIC50 turn out when `O=C(NC(COCc1ccccc1)C(=O)Nc1ccc(Oc2ccccc2)cc1)c1ccc2[nH]ccc2c1` (stereo not shown) [Compound 20, N-(3-(benzyloxy)-1-oxo-1-(4-phenoxyphenylamino)propan-2-yl)-1H-indole-5-carboxamide] was run?
Answer: Its pIC50 is under 6.00.

Question: `COc1cccc(C[C@@H]2C[C@@H](C(=O)Nc3ccc(Oc4ccc(F)cc4)cc3)N(C(=O)Cn3cncn3)C2)c1` [Compound 70, (2S,4R)-1-(2-(1H-1,2,4-triazol-1-yl)acetyl)-N-(4-(4-fluorophenoxy)phenyl)-4-(3-methoxybenzyl)pyrrolidine-2-carboxamide] was tested. Which pIC50 did it give?
Answer: Its pIC50 is at least 6.52.

Question: `O=C(NC(COCc1ccccc1)C(=O)Nc1ccc(Oc2ccccc2)cc1)c1cccc(O)n1` (stereo not shown) [Compound 358, 6-hydroxy-N-(2-oxo-1-{[(phenylmethyl)oxy]methyl}-2-{[4-(phenyloxy)phenyl]amino}ethyl)pyridine-2-carboxamide] was tested. Which pIC50 did it give?
Answer: Its pIC50 is under 6.00.

Question: With `O=C(Cc1cnccn1)N[C@@H](COCc1ccccc1)C(=O)Nc1ccc(Oc2ccc(F)cc2)cc1` [Compound 159, (S)-3-(benzyloxy)-N-(4-(4-fluorophenoxy)phenyl)-2-(2-(pyrazin-2-yl)acetamido)propanamide] as the compound, how does the pIC50 read?
Answer: The pIC50 was at least 6.52.

Question: With `O=C(NC(COCc1ccccc1)C(=O)Nc1ccc(Oc2ccccc2)cc1)c1cc2ccccc2o1` (stereo not shown) [Compound 366, N-(2-oxo-1-{[(phenylmethyl)oxy]methyl}-2-{[4-(phenyloxy)phenyl]amino}ethyl)-1-benzofuran-2-carboxamide] as the compound, how does the pIC50 read?
Answer: Its pIC50 is under 6.00.

Question: How did the pIC50 turn out when `O=C(Nc1ccc(Oc2ccc(F)cc2)cc1)[C@@H]1C[C@@H](Cc2ccccc2)CN1C(=O)Cc1cccs1` [Compound 117, (2S,4R)-4-benzyl-N-(4-(4-fluorophenoxy)phenyl)-1-(2-(thien-2-yl)acetyl)pyrrolidine-2-carboxamide] was run?
Answer: Its pIC50 is at least 6.52.

Question: How did the pIC50 turn out when `COc1ccc(N2CCN(CC(=O)N[C@@H](COCc3ccccc3)C(=O)Nc3ccc(Oc4ccc(F)cc4)cc3)CC2)cc1` [Compound 224, (S)-3-(benzyloxy)-N-(4-(4-fluorophenoxy)phenyl)-2-(2-(4-(4-methoxyphenyl)piperazin-1-yl)acetamido)propanamide] was run?
Answer: Its pIC50 is 6.00 to 6.52.

Question: With `O=C(NC(COCc1ccccc1)C(=O)Nc1ccc(Oc2ccccc2)cc1)c1cccc(Cl)c1` (stereo not shown) [Compound 275, 3-chloro-N-(2-oxo-1-{[(phenylmethyl)oxy]methyl}-2-{[4-(phenyloxy)phenyl]amino}ethyl)benzamide] as the compound, how does the pIC50 read?
Answer: The pIC50 was under 6.00.

Question: With `O=C(Nc1ccc(Oc2ccc(F)cc2)cc1)[C@@H]1C[C@@H](Cc2ccccc2)CN1C(=O)Cn1nnc2ccccc21` [Compound 176, (2S,4R)-1-(2-(1H-benzo[d][1,2,3]triazol-1-yl)acetyl)-4-benzyl-N-(4-(4-fluorophenoxy)phenyl)pyrrolidine-2-carboxamide] as the compound, how does the pIC50 read?
Answer: The pIC50 was at least 6.52.

Question: With `Cc1cc(Oc2ccc(F)cc2)ccc1NC(=O)[C@H](COCc1ccccc1)NC(=O)Cc1cnc[nH]1` [Compound 47, (S)-2-(2-(1H-imidazol-5-yl)acetamido)-3-(benzyloxy)-N-(4-(4-fluorophenoxy)-2-methylphenyl)propanamide] as the compound, how does the pIC50 read?
Answer: The pIC50 was under 6.00.

Question: With `Cn1cc(CC(=O)NC(COCc2ccccc2)C(=O)Nc2ccc(Oc3ccccc3)cc2)c2ccccc21` (stereo not shown) [Compound 364, N-(2-oxo-1-{[(phenylmethyl)oxy]methyl}-2-{[4-(phenyloxy)phenyl]amino}ethyl)-2-(1-methyl-1H-indol-3-yl)acetamide] as the compound, how does the pIC50 read?
Answer: The pIC50 was under 6.00.

Question: How did the pIC50 turn out when `O=C(Nc1ccc(Oc2ccc(F)cc2)cc1)[C@@H]1C[C@@H](Cc2ccccc2)CN1C(=O)Cc1c(Cl)cccc1Cl` [Compound 119, (2S,4R)-4-benzyl-1-(2-(2,6-dichlorophenyl)acetyl)-N-(4-(4-fluorophenoxy)phenyl)pyrrolidine-2-carboxamide] was run?
Answer: The pIC50 was at least 6.52.
